Patent US7342122B2, “Bisphosphonate complexes” (priority 2003, dated 2008)

Tests used:
HBC-5 = test: Cell growth inhibition, breast cancer cell line HBC-5; type: cell-based; conditions: HBC-5, breast cancer cell line
Experimental: (§1) KB cells were purchased from Human Science Research Resource Bank (Osaka, Japan). The cells were cultured in Earle's MEM (GIBCO BRL) containing 10% FBS (Bio Whittaker) at 37° C. under 5% CO2. After 24 hours the test compounds were added to the cells at the indicated concentrations. 72 hours later the cells were stained with tripan blue and counted manually. IC50 is calculated as the concentration (aqueous solution) of complex required to inhibit growth of cells by 50%.
(§2) In a similar fashion a representative number of examples of compounds of the invention were tested for their ability to inhibit the growth/proliferation of cell types representing a number of different cancers. The results are provided in Tables 4-13, below, which provide the Inhibition Constants (IC50, μM) for each compound across various cell lines.

LOX-IMVI = test: Cell growth inhibition, melanoma cell line LOX-IMVI; type: cell-based
Experimental: as §1, §2

SF-268 = test: Cell growth inhibition, brain cancer cell line SF-268; type: cell-based; conditions: SF-268, brain cancer cell line
Experimental: as §1, §2

MKN45 = test: Cell growth inhibition, human stomach cancer MKN45; type: cell-based
Experimental: as §1, §2

MDA-MB-231 = test: Cell growth inhibition, breast cancer cell line MDA-MB-231; type: cell-based; conditions: MDA-MB-231, breast cancer cell line
Experimental: as §1, §2

[1] = system: all cell types (cancer cell lines of Tables 4-12); test: Cell growth inhibition, mean over all cell types of the panel; type: cell-based; conditions: mean over all cell lines of Tables 4-12
Experimental: as §1, §2

DU-145 = test: Cell growth inhibition, prostatic cancer DU-145; type: cell-based, human; conditions: DU-145, prostatic cancer
Experimental: as §1, §2

HBC-4 = test: Cell growth inhibition, breast cancer cell line HBC-4; type: cell-based; conditions: HBC-4, breast cancer cell line
Experimental: as §1, §2

OVCAR-4 = test: Cell growth inhibition, ovarian cancer cell line OVCAR-4; type: cell-based; conditions: OVCAR-4, ovarian cancer cell line
Experimental: as §1, §2

SF-295 = test: Cell growth inhibition, brain cancer cell line SF-295; type: cell-based; conditions: SF-295, brain cancer cell line
Experimental: as §1, §2

BSY-1 = test: Cell growth inhibition, breast cancer cell line BSY-1; type: cell-based; conditions: BSY-1, breast cancer cell line
Experimental: as §1, §2

ACHN = test: Cell growth inhibition, renal cancer ACHN; type: cell-based
Experimental: as §1, §2

HCT-116 = test: Cell growth inhibition, colon cancer cell line HCT-116; type: cell-based; conditions: HCT-116, colon cancer cell line
Experimental: as §1, §2

MCF-7 = test: Cell growth inhibition, breast cancer cell line MCF-7; type: cell-based; conditions: MCF-7, breast cancer cell line
Experimental: as §1, §2

DMS114 = test: Cell growth inhibition, lung cancer cell line DMS114; type: cell-based
Experimental: as §1, §2

DMS273 = test: Cell growth inhibition, lung cancer cell line DMS273; type: cell-based
Experimental: as §1, §2

SNB-75 = test: Cell growth inhibition, brain cancer cell line SNB-75; type: cell-based; conditions: SNB-75, brain cancer cell line
Experimental: as §1, §2

NCI-H23 = test: Cell growth inhibition, lung cancer cell line NCI-H23; type: cell-based
Experimental: as §1, §2

SK-OV-3 = test: Cell growth inhibition, ovarian cancer cell line SK-OV-3; type: cell-based; conditions: SK-OV-3, ovarian cancer cell line
Experimental: as §1, §2

MKN1 = test: Cell growth inhibition, human stomach cancer MKN1; type: cell-based
Experimental: as §1, §2

NCI-H460 = test: Cell growth inhibition, lung cancer cell line NCI-H460; type: cell-based
Experimental: as §1, §2

PC-3 = test: Cell growth inhibition, prostatic cancer PC-3; type: cell-based; conditions: PC-3, prostatic cancer
Experimental: as §1, §2

SNB-78 = test: Cell growth inhibition, brain cancer cell line SNB-78; type: cell-based; conditions: SNB-78, brain cancer cell line
Experimental: as §1, §2

NCI-H522 = test: Cell growth inhibition, lung cancer cell line NCI-H522; type: cell-based
Experimental: as §1, §2

OVCAR-3 = test: Cell growth inhibition, ovarian cancer cell line OVCAR-3; type: cell-based; conditions: OVCAR-3, ovarian cancer cell line
Experimental: as §1, §2

RXF-631L = test: Cell growth inhibition, renal cancer RXF-631L; type: cell-based
Experimental: as §1, §2

KB cells = test: In vitro assay, cell growth inhibition (KB cells); type: cell-based; conditions: 72 hours; for IC50: concentration to inhibit growth of cells by 50%
Experimental: as §1

MKN28 = test: Cell growth inhibition, human stomach cancer MKN28; type: cell-based
Experimental: as §1, §2

St-4 = test: Cell growth inhibition, human stomach cancer St-4; type: cell-based; conditions: St-4, human stomach cancer
Experimental: as §1, §2

U251 = test: Cell growth inhibition, brain cancer cell line U251; type: cell-based
Experimental: as §1, §2

HT-29 = test: Cell growth inhibition, colon cancer cell line HT-29; type: cell-based; conditions: HT-29, colon cancer cell line
Experimental: as §1, §2

SF-539 = test: Cell growth inhibition, brain cancer cell line SF-539; type: cell-based; conditions: SF-539, brain cancer cell line
Experimental: as §1, §2

MKN74 = test: Cell growth inhibition, human stomach cancer MKN74; type: cell-based
Experimental: as §1, §2

HCC2998 = test: Cell growth inhibition, colon cancer cell line HCC2998; type: cell-based
Experimental: as §1, §2

A549 = test: Cell growth inhibition, lung cancer cell line A549; type: cell-based
Experimental: as §1, §2

MKN7 = test: Cell growth inhibition, human stomach cancer MKN7; type: cell-based
Experimental: as §1, §2

KM-12 = test: Cell growth inhibition, colon cancer cell line KM-12; type: cell-based; conditions: KM-12, colon cancer cell line
Experimental: as §1, §2

NCI-H226 = test: Cell growth inhibition, lung cancer cell line NCI-H226; type: cell-based
Experimental: as §1, §2

OVCAR-8 = test: Cell growth inhibition, ovarian cancer cell line OVCAR-8; type: cell-based; conditions: OVCAR-8, ovarian cancer cell line
Experimental: as §1, §2

OVCAR-5 = test: Cell growth inhibition, ovarian cancer cell line OVCAR-5; type: cell-based; conditions: OVCAR-5, ovarian cancer cell line
Experimental: as §1, §2

N.N.O.O.O.O.O.O.O.O=P([O-])([O-])OC1C(OP(=O)([O-])[O-])C(OP(=O)([O-])[O-])C(OP(=O)([O-])[O][Pt+])C(OP(=O)([O-])[O-])C1OP(=O)([O-])[O-].[Na+].[Na+].[Na+].[Na+].[Na+].[Na+].[Na+].[Na+].[Na+].[Na+] (centres unmarked) [Example 9, Pt(NH3)—IP6 Pt(NH3)2.IP6.10Na.7H2O]
log10 IC50 (M) (HBC-5): -5.16 | log10 IC50 (M) (LOX-IMVI): -4.08 | log10 IC50 (M) (SF-268): -4.26 | log10 IC50 (M) (MKN45): -4.14 | log10 IC50 (M) (MDA-MB-231): -4.06 | log10 IC50 (M) [1]: -4.38 | log10 IC50 (M) (DU-145): -4.66 | log10 IC50 (M) (HBC-4): -4.27 | log10 IC50 (M) (OVCAR-4): -4.42 | log10 IC50 (M) (SF-295): -4.46 | log10 IC50 (M) (BSY-1): -4.71 | log10 IC50 (M) (ACHN): -5.37 | log10 IC50 (M) (HCT-116): -4.41 | log10 IC50 (M) (MCF-7): -4.19 | log10 IC50 (M) (DMS114): -4.72 | log10 IC50 (M) (DMS273): -4.29 | log10 IC50 (M) (SNB-75): -5.51 | log10 IC50 (M) (NCI-H23): -4.7 | log10 IC50 (M) (SK-OV-3): -5.2 | log10 IC50 (M) (MKN1): -4.42 | log10 IC50 (M) (NCI-H460): -4.46 | log10 IC50 (M) (PC-3): -4.04 | log10 IC50 (M) (SNB-78): -4.29 | log10 IC50 (M) (NCI-H522): -5.69 | log10 IC50 (M) (OVCAR-3): -4.82 | log10 IC50 (M) (RXF-631L): -4.37

[Cl-].[Cl-].c1cc[n+]2c(c1)-c1cccc[n+]1[Pt-2]21[NH2+]CC[NH+]1Cc1c2ccccc2cc2ccccc12 [Example 4, [Pt(bpy)(Aten)]Cl2]
log10 IC50 (M) (HBC-5): -4.12 | log10 IC50 (M) (LOX-IMVI): -4.46 | KB cells remaining/growth in percent (Table 2, untitled) (KB cells; 1 μg/ml): 93.8% | KB cells remaining/growth in percent (Table 2, untitled) (KB cells; 3 μg/mL): 81.4% | KB cells remaining/growth in percent (Table 2, untitled) (KB cells; 10 μg/mL): 75.3% | KB cells remaining/growth in percent (Table 2, untitled) (KB cells; 30 μg/mL): 73.2% | KB cells remaining/growth in percent (Table 2, untitled) (KB cells; 100 μg/mL): 32.5% | IC50 (KB cells): 97 µM | log10 IC50 (M) (MKN28): -4.34 | log10 IC50 (M) (SF-268): -4.83 | log10 IC50 (M) (MKN45): -4.68 | log10 IC50 (M) (MDA-MB-231): -4.5 | log10 IC50 (M) (St-4): -4.74 | log10 IC50 (M) (U251): -4.84 | log10 IC50 (M) [1]: -4.54 | log10 IC50 (M) (DU-145): -4.33 | log10 IC50 (M) (HBC-4): -4.14 | log10 IC50 (M) (OVCAR-4): -4.19 | log10 IC50 (M) (SF-295): -4.9 | log10 IC50 (M) (BSY-1): -4.89 | log10 IC50 (M) (HT-29): -4.57 | log10 IC50 (M) (ACHN): -4.2 | log10 IC50 (M) (HCT-116): -4.37 | log10 IC50 (M) (SF-539): -4.82 | log10 IC50 (M) (MKN74): -4.75 | log10 IC50 (M) (MCF-7): -4.23 | log10 IC50 (M) (DMS114): -4.89 | log10 IC50 (M) (HCC2998): -4.81 | log10 IC50 (M) (DMS273): -4.85 | log10 IC50 (M) (A549): -4.69 | log10 IC50 (M) (SNB-75): -4.77 | log10 IC50 (M) (NCI-H23): -4.18 | log10 IC50 (M) (MKN7): -4.45 | log10 IC50 (M) (SK-OV-3): -4.77 | log10 IC50 (M) (NCI-H460): -5.23 | log10 IC50 (M) (KM-12): -4.77 | log10 IC50 (M) (PC-3): -4.22 | log10 IC50 (M) (SNB-78): -4.56 | log10 IC50 (M) (NCI-H226): -4.83 | log10 IC50 (M) (OVCAR-3): -4.13 | log10 IC50 (M) (OVCAR-8): -4.37 | log10 IC50 (M) (RXF-631L): -4.89 | log10 IC50 (M) (OVCAR-5): -4.79

cis-Pt(NH3)2Cl2
KB cells remaining/growth in percent (Table 2, untitled) (KB cells; 1 μg/ml): 17.0% | KB cells remaining/growth in percent (Table 2, untitled) (KB cells; 3 μg/mL): 13.4% | KB cells remaining/growth in percent (Table 1, untitled) (KB cells; 5 μM): 28.20% | KB cells remaining/growth in percent (Table 2, untitled) (KB cells; 10 μg/mL): 3.0% | KB cells remaining/growth in percent (Table 1, untitled) (KB cells; 15 μM): 13.80% | KB cells remaining/growth in percent (Table 2, untitled) (KB cells; 30 μg/mL): 2.2% | KB cells remaining/growth in percent (Table 1, untitled) (KB cells; 50 μM): 6.78% | KB cells remaining/growth in percent (Table 2, untitled) (KB cells; 100 μg/mL): 1.6% | KB cells remaining/growth in percent (Table 1, untitled) (KB cells; 150 μM): 4.34% | KB cells remaining/growth in percent (Table 1, untitled) (KB cells; 500 μM): 3.52% | IC50 (KB cells): 2.75 µM
